Laboratory results taken from patent US20250236603A1, “SOLID FORMS OF ALECTINIB AND ALECTINIB SALTS” (Synthon B.V., priority 2022, published 2025).
Like-named read-outs stand apart in the source and are kept apart here.

Key:
[1] = Solubilities of prepared salts (buffer pH 1.2 with 4% Triton X-100, HPLC); settings: 100 rpm
Method: (§1) 20 mg of the Alectinib salt was mixed 10 ml of a mixture of buffer pH 1.2 and 4% Triton X-100. The mixture was placed into a stirring carousel at temperature +37° C. and 100 rpm. After 1 hour and 4 hours about 1 mL of each sample was taken and filtered through a 0.45 μm filter into a vial. Then each sample was diluted with Solvent solution to get signal of absorbance ≤1 at 265 nm, transferred into a vial and measured by HPLC method.
(§2) 20 mg of the Alectinib salt was mixed 10 ml of a mixture of buffer pH 1.2 and 4% Triton X-100. The mixture was placed into a stirring carousel at temperature+37° C. and 100 rpm. After 1 hour and 4 hours about 1 mL of each sample was taken and filtered through a 0.45 μm filter into a vial. Then each sample was diluted with Solvent solution to get signal of absorbance≤1 at 265 nm, transferred into a vial and measured by HPLC method.

[2] = pH 1.2
Method: as §1, §2

[3] = Example 18, 20 mg salt in 10 ml buffer pH 1.2 and 4% Triton X-100, +37° C.
[4] = Example 10, 20 mg salt in 10 ml buffer pH 1.2 and 4% Triton X-100, +37° C.
[5] = Example 28, 20 mg salt in 10 ml buffer pH 1.2 and 4% Triton X-100, +37° C.
[6] = Example 18, 20 mg salt in 10 ml buffer pH 1.2 and 4% Triton X-100, +37° C., maleate salt
[7] = Example 10, 20 mg salt in 10 ml buffer pH 1.2 and 4% Triton X-100, +37° C., acetate salt

Molecule | Solubility after 1 hour [1, 3] | Solubility after 1 hour [2] | further results
CCc1cc2c(cc1N1CCC(N3CCOCC3)CC1)C(C)(C)c1[nH]c3cc(C#N)ccc3c1C2=O.O=C(O)C=CC(=O)O [Fumaric acid (1:1) salt, Form 2, Alectinib fumaric acid (1:1) salt] | 1300 µg/mL |  | 
CCc1cc2c(cc1N1CCC(N3CCOCC3)CC1)C(C)(C)c1[nH]c3cc(C#N)ccc3c1C2=O.O=C(O)C=CC(=O)O [Fumaric acid (1:1) salt, Form 6, Alectinib fumaric acid (1:1) salt] | 1220 µg/mL |  | 
CCc1cc2c(cc1N1CCC(N3CCOCC3)CC1)C(C)(C)c1[nH]c3cc(C#N)ccc3c1C2=O.CCc1cc2c(cc1N1CCC(N3CCOCC3)CC1)C(C)(C)c1[nH]c3cc(C#N)ccc3c1C2=O.O=C(O)C=CC(=O)O [Fumaric acid (2:1) salt, Form 2, Alectinib fumaric acid (2:1) salt] | 1230 µg/mL |  | 
CCc1cc2c(cc1N1CCC(N3CCOCC3)CC1)C(C)(C)c1[nH]c3cc(C#N)ccc3c1C2=O.Cl [HCl, reference compound] | 370 µg/mL |  | Solubility after 1 hour [1, 4]: 370 µg/mL; Solubility after 1 hour [1, 5]: 370 µg/mL
CCc1cc2c(cc1N1CCC(N3CCOCC3)CC1)C(C)(C)c1[nH]c3cc(C#N)ccc3c1C2=O.O=C(O)C=CC(=O)O [Hydrogen maleate salt, Form 1, Alectinib hydrogen maleate salt] |  |  | Solubility after 1 hour [1, 6]: 2380 µg/mL
CCc1cc2c(cc1N1CCC(N3CCOCC3)CC1)C(C)(C)c1[nH]c3cc(C#N)ccc3c1C2=O.O=C(O)C=CC(=O)O [Hydrogen maleate salt, Form 2, Alectinib hydrogen maleate salt] |  |  | Solubility after 1 hour [1, 6]: 1260 µg/mL
CCc1cc2c(cc1N1CCC(N3CCOCC3)CC1)C(C)(C)c1[nH]c3cc(C#N)ccc3c1C2=O.CS(=O)(=O)O [Methane sulfonate salt, Form 3, Alectinib methane sulfonate salt] |  | 1210 µg/mL | 
CCc1cc2c(cc1N1CCC(N3CCOCC3)CC1)C(C)(C)c1[nH]c3cc(C#N)ccc3c1C2=O.CS(=O)(=O)O [Methane sulfonate salt, Form 12, Alectinib methane sulfonate salt] |  | 1350 µg/mL | 
CCc1cc2c(cc1N1CCC(N3CCOCC3)CC1)C(C)(C)c1[nH]c3cc(C#N)ccc3c1C2=O.CS(=O)(=O)O [Methane sulfonate salt, Form 13, Alectinib methane sulfonate salt] |  | 1300 µg/mL | 
CCc1cc2c(cc1N1CCC(N3CCOCC3)CC1)C(C)(C)c1[nH]c3cc(C#N)ccc3c1C2=O.CS(=O)(=O)O [Methane sulfonate salt, Form 14, Alectinib methane sulfonate salt] |  | 1320 µg/mL | 
CCc1cc2c(cc1N1CCC(N3CCOCC3)CC1)C(C)(C)c1[nH]c3cc(C#N)ccc3c1C2=O.CS(=O)(=O)O [Methane sulfonate salt, Form 15, Alectinib methane sulfonate salt] |  | 1190 µg/mL | 
Alectinib acetate salt [Acetate, Form 2] |  |  | Solubility after 1 hour [1, 7]: 870 µg/mL
Alectinib acetate salt [Acetate, Form 4] |  |  | Solubility after 1 hour [1, 7]: 1220 µg/mL
Alectinib tartrate salt [Tartrate, Form 8] | 1230 µg/mL |  | 
Tosylate [reference compound] | 500 µg/mL |  | Solubility after 1 hour [1, 4]: 500 µg/mL; Solubility after 1 hour [1, 5]: 500 µg/mL
